In ChEMBL document CHEMBL2095176, “GSK Tuberculosis Screening Data”:
Values after ≈ are worked out from the molar mass of the structure shown.

Each compound was assayed on Mycobacterium tuberculosis variant bovis BCG (assay: microbe, parasite or virus in culture).
Type: functional
`CCCCOc1ccc(S(=O)(=O)NCCCn2nc(Cl)c(N3CCCNCC3)cc2=O)cc1` gave an MIC90 of 4.4 µM (≈ 2.19 µg/mL).
`COc1ccc2c(ccn2C(=O)OCCC2CCNCC2)c1` showed an MIC90 of 4.4 µM (≈ 1.33 µg/mL).
`O=C(c1ccc(-c2cccc(OCCN3CCC(c4ccc(F)cc4)CC3)c2)cc1)N1CCCC1` showed an MIC90 of 4.4 µM (≈ 2.08 µg/mL).
`O=C(NNC(=O)c1cccs1)c1ccc(Oc2ccccc2)cc1` showed an MIC90 of 4.4 µM (≈ 1.49 µg/mL).
`COc1ccc(CCNc2nccc(-c3cccc(OC4CCNCC4)c3)n2)cc1` gave an MIC90 of 4.4 µM (≈ 1.78 µg/mL).
With `Nc1nc(SCc2cccc(F)c2F)nc2[nH]c(=O)cnc12` the MIC90 was 4.4 µM (≈ 1.41 µg/mL).
`Cc1ccc2nc(C(F)(F)F)c(C(=O)NCc3ccc(C)o3)n2c1` showed an MIC90 of 4.4 µM (≈ 1.48 µg/mL).
Compound `c1csc(-c2nnc(Sc3ccnc(N4CCN(c5ccncc5)CC4)n3)n2CCCN2CCOCC2)c1` has an MIC90 of 5.4 µM (≈ 2.97 µg/mL).
For `O=C(Nc1nc(-c2ccccn2)cs1)c1ccc(Br)o1`, the MIC90 was 3.5 µM (≈ 1.23 µg/mL).
`Fc1ccc(F)c(-c2noc(CC3CCN(Cc4ccsc4)C3)n2)c1` (configuration not stated) gave an MIC90 of 3.5 µM (≈ 1.26 µg/mL).
Compound `NC(=O)c1cc(-c2ccsc2)ccc1OCCOc1ccccc1` has an MIC90 of 2.7 µM (≈ 0.916 µg/mL).
Work on `Br.CC1(C)NC(N)=NC(=N)N1OCCCOc1ccc(Cl)cc1Cl` yielded an MIC90 of 4.5 µM.
`Nc1ccccc1NC1CCN(Cc2ccccc2)CC1` was tested, and the MIC90 was 3.6 µM (≈ 1.01 µg/mL).
For `O=C(Nc1nc(-c2ccccn2)cs1)c1ccc(-c2ccc(F)cc2)s1`, the MIC90 was 3.6 µM (≈ 1.37 µg/mL).
`CCCCOc1ccc(C(=O)Nc2nc(-c3ccccn3)cs2)cc1OCC` was tested, and the MIC90 was 3.6 µM (≈ 1.43 µg/mL).
`O=C(Nc1cccc(C(=O)N2CCCC(c3nc4ccccc4s3)C2)c1)c1cccs1` (configuration not stated) was tested, and the MIC90 was 3.6 µM (≈ 1.61 µg/mL).
Compound `CC(C)n1ncc2c(C(=O)NCC(c3ccco3)N3CCCC3)cc(-c3ccccc3)nc21` (configuration not stated) has an MIC90 of 3.6 µM (≈ 1.6 µg/mL).
`COc1ccc(-c2ccc(Nc3cccc(S(=O)(=O)CCN4CCc5ccccc5C4)c3)nc2)cn1` showed an MIC90 of 3.6 µM (≈ 1.8 µg/mL).
`C=CCNCCS(=O)(=O)c1cccc(Nc2ncc(-c3ccc(OC)nc3)cn2)c1` gave an MIC90 of 3.6 µM (≈ 1.53 µg/mL).
With `CC(C)NCc1ccc(-c2ccc(NS(=O)(=O)c3ccc(F)cc3)cc2)cc1` the MIC90 was 3.6 µM (≈ 1.43 µg/mL).
`O=C(Nc1nnc(-c2ccccc2)o1)c1cccc(C(F)(F)F)c1` gave an MIC90 of 3.6 µM (≈ 1.2 µg/mL).
`CS(=O)(=O)c1ccc(C(=O)Nc2nc(-c3ccccn3)cs2)cc1` showed an MIC90 of 3.6 µM (≈ 1.29 µg/mL).
Work on `COc1cccc(Nc2cc(C(C)(C)C)nc(-c3ccccn3)n2)c1` yielded an MIC90 of 3.6 µM (≈ 1.2 µg/mL).
`CCS(=O)(=O)c1ccc(C(=O)Nc2nc(-c3ccccn3)cs2)cc1` showed an MIC90 of 3.7 µM (≈ 1.38 µg/mL).
`O=C(NCCCn1nc(Cl)c(N2CCCNCC2)cc1=O)Nc1ccc(-c2ccccc2)cc1` was tested, and the MIC90 was 3.7 µM (≈ 1.78 µg/mL).
Compound `c1ccc(Nc2cc(-c3ccccc3)nc(-c3ccccn3)n2)cc1` has an MIC90 of 3.7 µM (≈ 1.2 µg/mL).
In the case of `Cc1ccc(-c2nnc(NC(=O)c3ccc(C#N)cc3)o2)cc1C`, the MIC90 is reported as 3.7 µM (≈ 1.18 µg/mL).
For `COc1ccc(-c2cc(C(=O)NC3CCCCNC3=O)n3nc(C(C)(C)C)cc3n2)cc1` (configuration not stated), the MIC90 was 3.7 µM (≈ 1.61 µg/mL).
For `COc1ccc(N2CCN(c3ccc(C#N)cc3C(F)(F)F)CC2)c(OC)c1`, the MIC90 was 3.7 µM (≈ 1.45 µg/mL).
Compound `CCOc1cc(OC)c(C(=O)Nc2cccc3c2CCNC3C)cc1Cl` (configuration not stated) has an MIC90 of 3.7 µM (≈ 1.39 µg/mL).
For `O=C(C=Cc1ccccc1)N1CCN(Cc2ccc3c(c2)OCO3)CC1`, the MIC90 was 2.9 µM (≈ 1.02 µg/mL).
Compound `Cc1cc(CN2CCC3(CC2)OCCc2sccc23)oc1C` has an MIC90 of 2.1 µM (≈ 0.667 µg/mL).
Work on `COc1ccc(-c2nc(-c3cccc(NC(=O)Cc4ccc(F)cc4)c3)no2)cc1OC` yielded an MIC90 of 2.3 µM (≈ 0.997 µg/mL).
In the case of `CSc1cccc(C(=O)Nc2nc(-c3ccccn3)cs2)c1`, the MIC90 is reported as 4.6 µM (≈ 1.51 µg/mL).
Work on `CCc1cc(=O)[nH]c(-n2nc(C)cc2NC(=O)c2cc3ccccc3o2)n1` yielded an MIC90 of 3.8 µM (≈ 1.38 µg/mL).
In the case of `O=C(Nc1nnc(-c2ccc3c(c2)CCCC3)o1)c1ccc(Cl)s1`, the MIC90 is reported as 3.8 µM (≈ 1.37 µg/mL).
`Cc1ccc2c(Cl)c(C(=O)NC3=NCCS3)sc2c1` showed an MIC90 of 3.8 µM (≈ 1.18 µg/mL).
`O=C(/C=C/c1ccc(OC(F)(F)F)cc1)NC1CCN(c2ncccc2C(F)(F)F)CC1` was tested, and the MIC90 was 3.8 µM (≈ 1.75 µg/mL).
Work on `Cc1ccc2nc(C(F)(F)F)c(C(=O)NCc3ccco3)n2c1` yielded an MIC90 of 4.9 µM (≈ 1.58 µg/mL).
`Cc1ccc(-n2ncc3c(N4CCCNCC4)nc(C4CC4)nc32)cc1` gave an MIC90 of 3.9 µM (≈ 1.36 µg/mL).
`Cc1nc2ccccc2n1CC(O)COc1ccc(NC(=O)c2ccccc2)cc1` (configuration not stated) was tested, and the MIC90 was 3.9 µM (≈ 1.57 µg/mL).
Compound `O=C(Nc1nnc(-c2ccc(Cl)cc2)o1)c1ccc(F)cc1` has an MIC90 of 3.9 µM (≈ 1.24 µg/mL).
Compound `O=C(Nc1ccc(Oc2ccccc2)cc1)NC1CCCCC1` has an MIC90 of 3.9 µM (≈ 1.21 µg/mL).
Compound `CSc1ccc(-c2nnc(NC(=O)c3cccc(F)c3)o2)cc1` has an MIC90 of 3.9 µM (≈ 1.28 µg/mL).
`COc1ccc(CCC(=O)Nc2ccccc2Nc2ccc(OC)cc2)cc1` was tested, and the MIC90 was 3.9 µM (≈ 1.47 µg/mL).
`Cc1ccc(OCC(=O)Nc2ccc(C(=O)c3c(C)nc4sccn34)cc2)c(C)c1` showed an MIC90 of 3.9 µM (≈ 1.64 µg/mL).
With `CS(=O)(=O)N1CCN(c2ccccc2NC(=O)C(Cl)(Cl)Cl)CC1` the MIC90 was 3.9 µM (≈ 1.56 µg/mL).
Compound `Cc1ccccc1CN1CCc2nc(N3CCN(c4ncccn4)CC3)ncc2C1` has an MIC90 of 4 µM (≈ 1.61 µg/mL).
`O=C(Nc1nnc(SCc2ccc(Cl)cc2)s1)c1ccccn1` was tested, and the MIC90 was 4 µM (≈ 1.45 µg/mL).
With `O=C(COCC(=O)Nc1nc(-c2ccccn2)cs1)Nc1nc(-c2ccccn2)cs1` the MIC90 was 4 µM (≈ 1.81 µg/mL).
For `Cc1ccc(-c2nnc(NC(=O)c3ccc(Cl)s3)o2)c(C)c1`, the MIC90 was 4 µM (≈ 1.34 µg/mL).
In the case of `Cc1nn(CC(C)C)c2sc(C(=O)Nc3nc(-c4ccccn4)cs3)cc12`, the MIC90 is reported as 3.7 µM (≈ 1.47 µg/mL).
Compound `COc1cc(OC)cc(C(=O)Nc2nc(-c3ccccn3)cs2)c1` has an MIC90 of 3.4 µM (≈ 1.16 µg/mL).
For `Br.Cc1ccccc1OCCCON1C(=N)N=C(N)NC1(C)C`, the MIC90 was 7 µM.
Compound `Cc1occc1C(=O)Nc1nc(-c2ccccn2)nc2ccsc12` has an MIC90 of 1.1 µM (≈ 0.37 µg/mL).
Work on `CCc1c(C)nc(-n2nc(C)cc2NC(=O)CCc2ccccc2)[nH]c1=O` yielded an MIC90 of 3.8 µM (≈ 1.39 µg/mL).
With `Cc1ccc(OCC(=O)Nc2cc(C)nn2-c2nc(C)cc(O)n2)cc1` the MIC90 was 3.6 µM (≈ 1.27 µg/mL).
